# “And” between values parts separate entries of the source, which are not always exact repeats. Equal entries are not always repeated.
# Columns and labels:
# CCRF-CEM = assay: NCI single dose (10 µM) SRB screen; format: cell-based, human; conditions: leukaemia, 48 h
# SW-620 = assay: NCI single dose (10 µM) SRB screen; format: cell-based, human; conditions: colon cancer, 48 h
# SK-MEL-28 = assay: NCI single dose (10 µM) SRB screen; format: cell-based, human; conditions: melanoma, 48 h
# Bacillus subtilis = assay: Agar well diffusion method
# HCT-116 = assay: NCI single dose (10 µM) SRB screen; format: cell-based, human; conditions: colon cancer, 48 h
# HS578T = assay: NCI single dose (10 µM) SRB screen; format: cell-based, human; conditions: breast cancer, 48 h
# OVCAR-3 = assay: NCI single dose (10 µM) SRB screen; format: cell-based, human; conditions: ovarian cancer, 48 h
# SF-295 = assay: NCI single dose (10 µM) SRB screen; format: cell-based, human; conditions: CNS cancer, 48 h
# COLO 205 = assay: NCI single dose (10 µM) SRB screen; format: cell-based, human; conditions: colon cancer, 48 h
# MDA-MB-468 = assay: NCI single dose (10 µM) SRB screen; format: cell-based, human; conditions: breast cancer, 48 h
# NCI-H23 = assay: NCI single dose (10 µM) SRB screen; format: cell-based, human; conditions: non-small cell lung cancer, 48 h
# HT29 = assay: NCI single dose (10 µM) SRB screen; format: cell-based, human; conditions: colon cancer, 48 h
# SNB-19 = assay: NCI single dose (10 µM) SRB screen; format: cell-based, human; conditions: CNS cancer, 48 h
# KM12 = assay: NCI single dose (10 µM) SRB screen; format: cell-based, human; conditions: colon cancer, 48 h
# HOP-92 = assay: NCI single dose (10 µM) SRB screen; format: cell-based, human; conditions: non-small cell lung cancer, 48 h
# NCI/ADR-RES = assay: NCI single dose (10 µM) SRB screen; format: cell-based, human; conditions: ovarian cancer, 48 h
# Escherichia coli = assay: Agar well diffusion method
# SF-268 = assay: NCI single dose (10 µM) SRB screen; format: cell-based, human; conditions: CNS cancer, 48 h
# NCI-H460 = assay: NCI single dose (10 µM) SRB screen; format: cell-based, human; conditions: non-small cell lung cancer, 48 h
# 786-0 = assay: NCI single dose (10 µM) SRB screen; format: cell-based, human; conditions: renal cancer, 48 h
# MALME-3M = assay: NCI single dose (10 µM) SRB screen; format: cell-based, human; conditions: melanoma, 48 h
# EKVX = assay: NCI single dose (10 µM) SRB screen; format: cell-based, human; conditions: non-small cell lung cancer, 48 h
# NCI-H522 = assay: NCI single dose (10 µM) SRB screen; format: cell-based, human; conditions: non-small cell lung cancer, 48 h
# Staphylococcus aureus = assay: Agar well diffusion method
# SK-OV-3 = assay: NCI single dose (10 µM) SRB screen; format: cell-based, human; conditions: ovarian cancer, 48 h
# SN12C = assay: NCI single dose (10 µM) SRB screen; format: cell-based, human; conditions: renal cancer, 48 h
# IGROV1 = assay: NCI single dose (10 µM) SRB screen; format: cell-based, human; conditions: ovarian cancer, 48 h
# K-562 = assay: NCI single dose (10 µM) SRB screen; format: cell-based, human; conditions: leukaemia, 48 h
# T-47D = assay: NCI single dose (10 µM) SRB screen; format: cell-based, human; conditions: breast cancer, 48 h
# LOX IMVI = assay: NCI single dose (10 µM) SRB screen; format: cell-based, human; conditions: melanoma, 48 h
# RPMI-8226 = assay: NCI single dose (10 µM) SRB screen; format: cell-based, human; conditions: leukaemia, 48 h
# Pseudomonas aeruginosa = assay: Agar well diffusion method
# HCT-15 = assay: NCI single dose (10 µM) SRB screen; format: cell-based, human; conditions: colon cancer, 48 h
# SNB-75 = assay: NCI single dose (10 µM) SRB screen; format: cell-based, human; conditions: CNS cancer, 48 h
# DU-145 = assay: NCI single dose (10 µM) SRB screen; format: cell-based, human; conditions: prostate cancer, 48 h
# SK-MEL-2 = assay: NCI single dose (10 µM) SRB screen; format: cell-based, human; conditions: melanoma, 48 h
# SK-MEL-5 = assay: NCI single dose (10 µM) SRB screen; format: cell-based, human; conditions: melanoma, 48 h
# MDA-MB-231 = assay: NCI single dose (10 µM) SRB screen; format: cell-based, human; conditions: breast cancer, 48 h
# U251 = assay: NCI single dose (10 µM) SRB screen; format: cell-based, human; conditions: CNS cancer, 48 h
# PC-3 = assay: NCI single dose (10 µM) SRB screen; format: cell-based, human; conditions: prostate cancer, 48 h
# NCI-H226 = assay: NCI single dose (10 µM) SRB screen; format: cell-based, human; conditions: non-small cell lung cancer, 48 h
# MDA-MB-435 = assay: NCI single dose (10 µM) SRB screen; format: cell-based, human; conditions: melanoma, 48 h
# MOLT-4 = assay: NCI single dose (10 µM) SRB screen; format: cell-based, human; conditions: leukaemia, 48 h
# M14 = assay: NCI single dose (10 µM) SRB screen; format: cell-based, human; conditions: melanoma, 48 h
# Candida albicans = assay: Agar well diffusion method
# NCI 60 cancer cell lines = assay: NCI single dose (10 µM) SRB screen, mean over panel; format: cell-based, human; conditions: mean over 60 cell lines, 48 h
# HCC-2998 = assay: NCI single dose (10 µM) SRB screen; format: cell-based, human; conditions: colon cancer, 48 h
# SR = assay: NCI single dose (10 µM) SRB screen; format: cell-based, human; conditions: leukaemia, 48 h
# TK-10 = assay: NCI single dose (10 µM) SRB screen; format: cell-based, human; conditions: renal cancer, 48 h
# HOP-62 = assay: NCI single dose (10 µM) SRB screen; format: cell-based, human; conditions: non-small cell lung cancer, 48 h
# OVCAR-5 = assay: NCI single dose (10 µM) SRB screen; format: cell-based, human; conditions: ovarian cancer, 48 h
smiles,measurement,setting,value
"CCOC(=O)C1=C(C)NC(C)=C(C(=O)OC)C1c1cccc(C#N)c1 (racemic) [Compound 2g, (±)-3-Ethyl 5-methyl 4-(3-cyanophenyl)-2,6-dimethyl-1,4-dihydropyridine-3,5-dicarboxylate]",GI% CCRF-CEM,CCRF-CEM,– (Only GI% ≥ 10 are shown)
same,GI% SW-620,SW-620,– (Only GI% ≥ 10 are shown)
same,GI% SK-MEL-28,SK-MEL-28,– (Only GI% ≥ 10 are shown)
same,zone of inhibition at 1000 µg/mL,"Bacillus subtilis; Bacillus subtilis, 24 h, read-out: Diameter of inhibition zone, B. subtilis",19 mm
same,"% activity index, B. subtilis",Bacillus subtilis; relative to ciprofloxacin,82% and 82.6%
same,GI% HCT-116,HCT-116,– (Only GI% ≥ 10 are shown)
same,GI% HS578T,HS578T,10%
same,GI% OVCAR-3,OVCAR-3,– (Only GI% ≥ 10 are shown)
same,GI% SF-295,SF-295,– (Only GI% ≥ 10 are shown)
same,GI% COLO 205,COLO 205,– (Only GI% ≥ 10 are shown)
same,GI% MDA-MB-468,MDA-MB-468,– (Only GI% ≥ 10 are shown)
same,GI% NCI-H23,NCI-H23,– (Only GI% ≥ 10 are shown)
same,GI% HT29,HT29,– (Only GI% ≥ 10 are shown)
same,GI% SNB-19,SNB-19,– (Only GI% ≥ 10 are shown)
same,GI% KM12,KM12,– (Only GI% ≥ 10 are shown)
same,GI% HOP-92,HOP-92,– (Only GI% ≥ 10 are shown)
same,GI% NCI/ADR-RES,NCI/ADR-RES,– (Only GI% ≥ 10 are shown)
same,zone of inhibition at 1000 µg/mL,"Escherichia coli; Escherichia coli, 24 h, read-out: Diameter of inhibition zone, E. coli",19 mm
same,"% activity index, E. coli",Escherichia coli; relative to ciprofloxacin,73% and 73.1%
same,GI% SF-268,SF-268,– (Only GI% ≥ 10 are shown)
same,GI% NCI-H460,NCI-H460,– (Only GI% ≥ 10 are shown)
same,GI% 786-0,786-0,– (Only GI% ≥ 10 are shown)
same,GI% MALME-3M,MALME-3M,– (Only GI% ≥ 10 are shown)
same,GI% EKVX,EKVX,– (Only GI% ≥ 10 are shown)
same,GI% NCI-H522,NCI-H522,– (Only GI% ≥ 10 are shown)
same,zone of inhibition at 1000 µg/mL,"Staphylococcus aureus; Staphylococcus aureus, 24 h, read-out: Diameter of inhibition zone, S. aureus",22 mm
same,"% activity index, S. aureus",Staphylococcus aureus; relative to ciprofloxacin,91% and 91.7%
same,GI% SK-OV-3,SK-OV-3,– (Only GI% ≥ 10 are shown)
same,GI% SN12C,SN12C,– (Only GI% ≥ 10 are shown)
same,GI% IGROV1,IGROV1,– (Only GI% ≥ 10 are shown)
same,GI% K-562,K-562,– (Only GI% ≥ 10 are shown)
same,GI% T-47D,T-47D,– (Only GI% ≥ 10 are shown)
same,GI% LOX IMVI,LOX IMVI,– (Only GI% ≥ 10 are shown)
same,GI% RPMI-8226,RPMI-8226,– (Only GI% ≥ 10 are shown)
same,zone of inhibition at 1000 µg/mL,"Pseudomonas aeruginosa; Pseudomonas aeruginosa, 24 h, read-out: Diameter of inhibition zone, P. aeruginosa",21 mm
same,"% activity index, P. aeruginosa",Pseudomonas aeruginosa; relative to ciprofloxacin,91% and 91.3%
same,GI% HCT-15,HCT-15,– (Only GI% ≥ 10 are shown)
same,GI% SNB-75,SNB-75,– (Only GI% ≥ 10 are shown)
same,GI% DU-145,DU-145,– (Only GI% ≥ 10 are shown)
same,GI% SK-MEL-2,SK-MEL-2,– (Only GI% ≥ 10 are shown)
same,GI% SK-MEL-5,SK-MEL-5,– (Only GI% ≥ 10 are shown)
same,GI% MDA-MB-231,MDA-MB-231,– (Only GI% ≥ 10 are shown)
same,GI% U251,U251,– (Only GI% ≥ 10 are shown)
same,GI% PC-3,PC-3,– (Only GI% ≥ 10 are shown)
same,GI% NCI-H226,NCI-H226,– (Only GI% ≥ 10 are shown)
same,GI% MDA-MB-435,MDA-MB-435,– (Only GI% ≥ 10 are shown)
same,GI% MOLT-4,MOLT-4,– (Only GI% ≥ 10 are shown)
same,GI% M14,M14,– (Only GI% ≥ 10 are shown)
same,zone of inhibition at 1000 µg/mL,"Candida albicans; Candida albicans, 24 h, read-out: Diameter of inhibition zone, C. albicans",23 mm
same,"% activity index, C. albicans",Candida albicans; relative to clotrimazole,85% and 85.2%
same,Mean GI%,NCI 60 cancer cell lines,−1%
same,GI% HCC-2998,HCC-2998,– (Only GI% ≥ 10 are shown)
same,GI% SR,SR,14%
same,GI% TK-10,TK-10,– (Only GI% ≥ 10 are shown)
same,GI% HOP-62,HOP-62,– (Only GI% ≥ 10 are shown)
same,GI% OVCAR-5,OVCAR-5,– (Only GI% ≥ 10 are shown)

# Source: article PMC9481151, “Discovery of new symmetrical and asymmetrical nitrile-containing 1,4-dihydropyridine derivatives as dual kinases and P-glycoprotein inhibitors: synthesis, in vitro assays, and in silico studies” (Journal of Enzyme Inhibition and Medicinal Chemistry, 2022)
